Patent US12319655B2, “RAF kinase inhibitors and methods of use thereof” (Deciphera Pharmaceuticals, LLC, priority 2021, dated 2025)

Tests used:
[1] = test system: A375 cells; test: A375 Cell Proliferation Assay (2); format: cell-based; conditions: Homo sapiens, A-375
Protocol: A375 Cell Proliferation Assay (2)
A375 cells (catalog (#CRL-1619) are obtained from the American Type Culture Collect (ATTC, Manassas, VA). Briefly, cells were grown in DMEM High Glucose supplemented with 10% characterized fetal bovine serum (Invitrogen, Carlsbad, CA) and 1% Penicillin/Streptomycin/L-Glutamine at 37° C., 5% CO2, and 95% humidity. Cells are expanded until reaching 70-95% confluency at which point they are sub-cultured or harvested for assay use. Using the Beckman Coulter Echo 650, a serial dilution of test compound is dispensed into a 384-well black clear bottom plate in triplicate. Six hundred twenty-five cells are added per well in 50 μL complete growth medium in the 384-well plate. Plates are incubated for 67-72 h at 37° C., 5% CO2, and 95% humidity. At the end of the incubation, 10 μL of a 440 μM solution of resazurin (Sigma, St. Louis, MO) in PBS is added to each well of the plate and plates are incubated for an additional 3-6 h at 37° C., 5% CO2, and 95% humidity. Plates are read on a Synergy2 or equivalent reader (Biotek, Winooski VT) using an excitation of 540 nm and an emission of 600 nm. Data is analyzed using Prism software (GraphPad, San Diego, CA) to calculate IC50 values.

[2] = test system: WM3928 cells; test: WM3928 Cell Proliferation Assay (2); format: cell-based
Protocol: WM3928 Cell Proliferation Assay (2)
WM3928 cells (#WM3928-01-0001) are obtained from Rockland Immunochemicals Inc (Gilbertsville, PA). Briefly, cells were grown in MCDB 153 medium (Sigma, #M7403, St. Louis, MO) supplemented with 20% Leibovitz's L-15 (ThermoFisher #11415-064, Waltham, MA), 2% heat inactivated fetal bovine serum (ThermoFisher, #A3840001, Waltham, MA), 5 μg/mL Insulin (Bovine Pancreas) (Sigma, #10516, St. Louis, MO), 1.68 mM Calcium Chloride (Sigma, #C-34006, St. Louis, MO) and 1% Penicillin/Streptomycin/L-Glutamine (ThermoFisher #10378016, Waltham, MA) at 37° C., 5% CO2, and 95% humidity. Cells are expanded until reaching 70-95% confluency at which point they are sub-cultured or harvested for assay use. Using the Beckman Coulter Echo 650, a serial dilution of test compound is dispensed into a 384-well black clear bottom plate in triplicate. Seven hundred fifty cells are added per well in 50 μL complete growth medium in the 384-well plate. Plates are incubated for 67-72 hours at 37° C., 5% CO2, and 95% humidity. At the end of the incubation, 10 μL of a 440 μM solution of resazurin (Sigma, #199303, St. Louis, MO) in PBS is added to each well of the plate and plates are incubated for an additional 3-6 hours at 37° C., 5% CO2, and 95% humidity. Plates are read on a Synergy2 or equivalent reader (Biotek, Winooski VT) using an excitation of 540 nm and an emission of 600 nm. Data is analyzed using Prism software (GraphPad, San Diego, CA) to calculate IC50 values.

SMILES	IC50 [1] [nM]	IC50 [2] [nM]
CNC(=O)c1cc(-c2cc(-c3cc(NC(=O)c4ccnc(C5CC5)c4)ccc3C)ccn2)ccn1 [Example 460]	100 to 500	≤ 100
CNC(=O)c1cc(-c2cc(-c3cc(NC(=O)c4ccnc(C5CC5)c4)cnc3C)ccn2)ccn1 [Example 462]	1000 to 10000	500 to 1000
CNC(=O)c1cc(-c2cc(-c3cc(NC(=O)c4ccnc(C(C)(F)F)c4)cnc3C)ccn2)ccn1 [Example 463]	500 to 1000	100 to 500
CNC(=O)c1cc(-c2cc(-c3cc(NC(=O)c4ccnc(C5(C#N)CC5)c4)cnc3C)ccn2)ccn1 [Example 464]	100 to 500	100 to 500
CNC(=O)c1cc(-c2cc(-c3cc(NC(=O)c4ccnc(C(C)C)c4)cnc3C)ccn2)ccn1 [Example 465]	500 to 1000	100 to 500
Cc1ncc(NC(=O)c2ccnc(C(C)(F)F)c2)cc1-c1ccnc(-c2ccnc(NC(=O)C3CC3)c2)c1 [Example 466]	100 to 500	≤ 100
Cc1ncc(NC(=O)c2ccnc(C(C)C)c2)cc1-c1ccnc(-c2ccnc(NC(=O)C3CC3)c2)c1 [Example 468]	100 to 500	≤ 100
CNC(=O)c1cc(-c2cc(-c3cc(NC(=O)c4ccnc(C(C)(C)F)c4)ccc3C)c(F)cn2)ccn1 [Example 469]	100 to 500	100 to 500
CNC(=O)c1cc(-c2cc(-c3cc(NC(=O)c4ccnc(C(C)(C)F)c4)ccc3C)cc(C)n2)ccn1 [Example 470]	100 to 500	≤ 100
CNC(=O)c1cc(-c2cc(-c3cc(NC(=O)c4ccnc(C(C)(C)F)c4)ccc3C(F)(F)F)ccn2)ccn1 [Example 471]	1000 to 10000	1000 to 10000
CNC(=O)c1cc(-c2cc(-c3cc(NC(=O)c4ccnc(C(C)(C)F)c4)ccc3C)c(C)cn2)ccn1 [Example 472]	100 to 500	500 to 1000
CNC(=O)c1cc(-c2cc(-c3cc(F)cc(NC(=O)c4ccnc(C(C)(C)F)c4)c3F)ccn2)ccn1 [Example 475]	1000 to 10000	1000 to 10000
CNC(=O)c1cc(-c2cc(-c3cc(NC(=O)c4cnnc(C(F)(F)F)c4)ccc3C)ccn2)ccn1 [Example 477]	1000 to 10000	500 to 1000
CNC(=O)c1cc(-c2cc(-c3cc(NC(=O)c4ccnc(C(C)(C)F)c4)cc(F)c3F)ccn2)ccn1 [Example 478]	1000 to 10000	100 to 500
CNC(=O)c1cc(-c2cc(-c3cc(NC(=O)c4ccnc(C(C)(C)F)c4)ccc3F)ccn2)ccn1 [Example 479]	100 to 500	≤ 100
CNC(=O)c1cc(-c2cc(-c3cc(NC(=O)c4ccnc(C(C)(C)F)c4)cc(F)c3C)ccn2)ccn1 [Example 480]	100 to 500	≤ 100
CNC(=O)c1cc(-c2cc(-c3cc(NC(=O)c4ccnc(C(C)(C)F)c4)ccn3)ccn2)ccn1 [Example 481]	1000 to 10000	1000 to 10000
CNC(=O)c1cc(-c2cc(-c3cc(NC(=O)c4ccnc(C(C)(C)F)c4)c(F)cc3F)ccn2)ccn1 [Example 482]	100 to 500	100 to 500
Cc1cc(-c2cc(NC(=O)c3ccnc(C(C)(C)F)c3)ccc2C)cc(-c2ccnc(C#N)c2)n1 [Example 483]	1000 to 10000	500 to 1000

More lines, main results first:

IC50 [1] [nM]	SMILES	IC50 [2] [nM]
100 to 500	Cc1ccc(NC(=O)c2ccnc(C(C)(C)F)c2)cc1-c1ccnc(-c2ccnc(C(=O)NC3CN(C)C3)c2)c1 [Example 450]	100 to 500
≤ 100	Cc1ccc(NC(=O)c2ccnc(C(C)(C)F)c2)cc1-c1ccnc(-c2ccnc(C(=O)NCC#N)c2)c1 [Example 451]	≤ 100
100 to 500	CNC(=N)c1cc(-c2cc(-c3cc(NC(=O)c4ccnc(C(C)(C)F)c4)ccc3C)ccn2)ccn1 [Example 452]	100 to 500
100 to 500	Cc1ccc(NC(=O)c2ccnc(C(C)(C)F)c2)cc1-c1ccnc(-c2ccnc(C(=O)NCCN(C)C)c2)c1 [Example 453]	100 to 500
≤ 100	Cc1ncc(NC(=O)c2ccnc(C(C)(C)F)c2)cc1-c1ccnc(-c2ccnc(NC(=O)C3CC3)c2)c1 [Example 454]	≤ 100
≤ 100	Cc1ccc(NC(=O)c2ccnc(C(C)(C)F)c2)cc1-c1ccnc(-c2ccnc(NC(=O)C3CC3)c2)c1 [Example 455]	≤ 100
≤ 100	Cc1ccc(NC(=O)c2ccnc(C(C)(C)C#N)c2)cc1-c1ccnc(-c2ccnc(NC(=O)C3CC3)c2)c1 [Example 456]	≤ 100
≤ 100	Cc1ccc(NC(=O)c2ccnc(C3(C#N)CC3)c2)cc1-c1ccnc(-c2ccnc(NC(=O)C3CC3)c2)c1 [Example 457]	≤ 100
100 to 500	Cc1ccc(NC(=O)c2ccnc(C3CC3)c2)cc1-c1ccnc(-c2ccnc(NC(=O)C3CC3)c2)c1 [Example 458]	≤ 100
≤ 100	Cc1ccc(NC(=O)c2ccnc(C(C)(F)F)c2)cc1-c1ccnc(-c2ccnc(NC(=O)C3CC3)c2)c1 [Example 459]	≤ 100
≤ 100	Cc1ncc(NC(=O)c2ccnc(C3(C#N)CC3)c2)cc1-c1ccnc(-c2ccnc(NC(=O)C3CC3)c2)c1 [Example 461]	≤ 100
≤ 100	Cc1ccc(NC(=O)c2ccnc(C(C)C)c2)cc1-c1ccnc(-c2ccnc(NC(=O)C3CC3)c2)c1 [Example 467]	≤ 100
≤ 100	CNC(=O)c1cc(-c2cc(-c3cc(NC(=O)c4ccnc(C(C)(C)F)c4)ccc3C)cnn2)ccn1 [Example 473]	≤ 100
≤ 100	CNC(=O)c1cc(-c2cc(-c3cc(NC(=O)c4ccnc(C(C)(C)F)c4)ccc3C)ncn2)ccn1 [Example 474]	≤ 100
≤ 100	Cc1ccc(NC(=O)c2ccnc(C(C)(C)F)c2)cc1-c1ccnc(-c2ccnc(C(N)=O)c2)c1 [Example 476]	≤ 100
≤ 100	Cc1cc(-c2cc(NC(=O)c3ccnc(C(C)(C)F)c3)ccc2C)cc(-c2ccnc(C(N)=O)c2)n1 [Example 484]	≤ 100
